According to ChEMBL document CHEMBL1201862, “PubChem BioAssay data set” (2004):
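Dose response: 5 concentrations. Exposure: 48 h. Format: 96-well plates. Endpoint: linear interpolation; highest concentration if not reached. Here, GI50 denotes the concentration required for 50% inhibition of growth.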 Active and inactive are the calls of the source. No stated cut-off is given here; in the data, active = GI50 up to about 1.1 µM and inactive = higher.

Legend:
Experiment in all cases: growth of human tumour cells (NCI), 48 h
786-0 = test system: 786-0
OVCAR-5 = test system: OVCAR-5
RXF 393 = test system: RXF 393
SR = test system: SR
Hs-578T = test system: Hs-578T
IGROV-1 = test system: IGROV-1
SW-620 = test system: SW-620
ACHN = test system: ACHN
CCRF-CEM = test system: CCRF-CEM
PC-3 = test system: PC-3
MDA-MB-435 = test system: MDA-MB-435
MDA-N = test system: MDA-N
A549 = test system: A549
SK-MEL-28 = test system: SK-MEL-28
NCI/ADR-RES = test system: NCI/ADR-RES
CAKI-1 = test system: CAKI-1
HOP-92 = test system: HOP-92
HCC 2998 = test system: HCC 2998
SK-OV-3 = test system: SK-OV-3
HT-29 = test system: HT-29
MOLT-4 = test system: MOLT-4
SN12C = test system: SN12C
SF-539 = test system: SF-539
KM12 = test system: KM12
OVCAR-4 = test system: OVCAR-4
SK-MEL-5 = test system: SK-MEL-5
M14 = test system: M14
A498 = test system: A498
U-251 = test system: U-251
SNB-19 = test system: SNB-19
HOP-62 = test system: HOP-62
NCI-H522 = test system: NCI-H522
BT-549 = test system: BT-549
Malme-3M = test system: Malme-3M
LOX IMVI = test system: LOX IMVI
MCF7 = test system: MCF7
NCI-H23 = test system: NCI-H23
UACC-62 = test system: UACC-62
HCT-15 = test system: HCT-15
HCT-116 = test system: HCT-116
SNB-75 = test system: SNB-75
TK-10 = test system: TK-10
OVCAR-8 = test system: OVCAR-8
EKVX = test system: EKVX
T47D = test system: T47D
OVCAR-3 = test system: OVCAR-3
UACC-257 = test system: UACC-257
SF-268 = test system: SF-268
SK-MEL-2 = test system: SK-MEL-2
SF-295 = test system: SF-295
RPMI-8226 = test system: RPMI-8226
NCI-H460 = test system: NCI-H460
UO-31 = test system: UO-31
MDA-MB-231 = test system: MDA-MB-231
HL-60 = test system: HL-60
NCI-H226 = test system: NCI-H226

Q: Which results are given for `Cc1ccc2nc(NC(=O)C(=O)C3C(=O)NC(=S)NC3=O)sc2c1`?
A: GI50 (786-0): > 100 µM (inactive); GI50 (OVCAR-5): > 100 µM (inactive); GI50 (RXF 393): 43.6 µM (inactive); GI50 (SR): > 10 µM (inactive); GI50 (Hs-578T): > 100 µM (inactive); GI50 (IGROV-1): 49.4 µM (inactive); GI50 (SW-620): > 100 µM (inactive); GI50 (ACHN): > 100 µM (inactive); GI50 (CCRF-CEM): > 100 µM (inactive); GI50 (PC-3): > 100 µM (inactive); GI50 (MDA-MB-435): > 100 µM (inactive); GI50 (MDA-N): > 100 µM (inactive); GI50 (A549): > 100 µM (inactive); GI50 (SK-MEL-28): > 100 µM (inactive); GI50 (NCI/ADR-RES): > 100 µM (inactive); GI50 (CAKI-1): > 100 µM (inactive); GI50 (HOP-92): > 100 µM (inactive); GI50 (HCC 2998): > 100 µM (inactive); GI50 (SK-OV-3): > 100 µM (inactive); GI50 (HT-29): > 100 µM (inactive); GI50 (MOLT-4): > 100 µM (inactive); GI50 (SN12C): > 100 µM (inactive); GI50 (SF-539): > 100 µM (inactive); GI50 (KM12): > 100 µM (inactive); GI50 (OVCAR-4): > 100 µM (inactive); GI50 (SK-MEL-5): > 100 µM (inactive); GI50 (M14): > 100 µM (inactive); GI50 (A498): > 100 µM (inactive); GI50 (U-251): > 100 µM (inactive); GI50 (SNB-19): > 100 µM (inactive); GI50 (HOP-62): > 100 µM (inactive); GI50 (NCI-H522): 78 µM (inactive); GI50 (BT-549): > 100 µM (inactive); GI50 (Malme-3M): 55.6 µM (inactive); GI50 (LOX IMVI): > 100 µM (inactive); GI50 (MCF7): > 100 µM (inactive); GI50 (NCI-H23): > 100 µM (inactive); GI50 (UACC-62): > 100 µM (inactive); GI50 (HCT-15): > 100 µM; GI50 (HCT-116): > 100 µM (inactive); GI50 (SNB-75): > 100 µM (inactive); GI50 (TK-10): > 100 µM (inactive); GI50 (OVCAR-8): > 100 µM (inactive); GI50 (EKVX): > 100 µM (inactive); GI50 (T47D): > 100 µM (inactive); GI50 (OVCAR-3): > 100 µM (inactive); GI50 (UACC-257): > 100 µM (inactive); GI50 (SF-268): > 100 µM (inactive); GI50 (SK-MEL-2): > 100 µM (inactive); GI50 (SF-295): > 100 µM (inactive); GI50 (RPMI-8226): > 100 µM (inactive); GI50 (NCI-H460): > 100 µM (inactive); GI50 (UO-31): 77.3 µM (inactive); GI50 (MDA-MB-231): > 100 µM (inactive); GI50 (HL-60): > 100 µM (inactive); GI50 (NCI-H226): > 100 µM (inactive)
